Columns and labels:
[1] = molecular target: Cys242 in human PIK3CA (157-299) (Homo sapiens (Human), UniProt P42336); assay: Covalent modification assay using MALDI-TOF MS; assay type: biochemical; conditions: 4 h reaction time point; 3.33 μM protein target, 1:7.5 protein to compound ratio (compounds 1-852)
In short: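 PIK3CA (157-299), 3.33 or 1 μM in 20 mM HEPES, 150 mM NaCl, 2 mM MgCl2, pH 7.3, was incubated with compound at room temperature in the dark for 15 min, 30 min, 2 h or 4 h. Linear MALDI-TOF read-out; % modification = adduct peak height over summed heights of all protein species.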

[2] = test system: pAKT in BT474 cells; assay: Cell-based pAKT HTRF assay in BT474 cells; conditions: BT474 cells; 4 hr incubation; Compounds 10-999; read-out: pAKT inhibition IC50 in BT474 cells
In short: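 Cells grown in DMEM with 10% FBS were exposed to compounds for 4 hr in 0.25% DMSO, using a 9-point, 3-fold dilution series that starts at 3 μM. Lysates were incubated with d2 and Eu Cryptate antibodies for 4–24 h at room temperature, and HTRF was read at 615 nm emission.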

Chain of Cys242 in human PIK3CA (157-299) (P42336 157-299): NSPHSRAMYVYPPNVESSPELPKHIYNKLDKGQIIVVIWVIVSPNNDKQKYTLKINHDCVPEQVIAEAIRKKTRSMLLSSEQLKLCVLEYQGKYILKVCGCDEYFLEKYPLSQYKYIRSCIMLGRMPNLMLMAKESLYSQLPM

| IC50 [2] | Structure (SMILES) | % of modification [1] |
| --- | --- | --- |
| < 100 nM | C=CC(=O)N1Cc2cc(-c3nc(-c4ccc5cnn(C)c5c4)c4ccsc4c3-c3c(F)cc(F)cc3OC[C@@H](C)O)nn2C[C@H]1C [Compound 755] | A (percent of modification of PIK3CA protein ≥75%) |
| < 100 nM | C=CC(=O)N1Cc2cc(-c3nc(-c4ccc5c(c4)CNC5=O)c4ccsc4c3-c3c(F)cc(F)cc3OC[C@@H](C)O)nn2C[C@H]1C [Compound 756] | A (percent of modification of PIK3CA protein ≥75%) |
| < 100 nM | C=CC(=O)N1Cc2cc(-c3nc(-c4cnc(C)nc4)c4ccsc4c3-c3c(F)cc(F)cc3OC[C@@H](C)O)nn2C[C@H]1C [Compound 757] | A (percent of modification of PIK3CA protein ≥75%) |
| < 100 nM | C=CC(=O)N1CCn2nc(-c3nc(-c4ccc5c(cnn5C)c4)c4ccsc4c3-c3c(F)cc(F)cc3OCCOC)cc2[C@H]1C [Compound 758, 1-((R)-2-((S)-7-(2,4-difluoro-6-(2-methoxyethoxy)phenyl)-4-(1-methyl-1H-indazol-5-yl)thieno[3,2-c]pyridin-6-yl)-4-methyl-6,7-dihydropyrazolo[1,5-a]pyrazin-5(4H)-yl)prop-2-en-1-one] | A (percent of modification of PIK3CA protein ≥75%) |
| < 100 nM | C=CC(=O)N1CCn2nc(-c3nc(-c4ccc5nn(C)cc5c4)c4ccsc4c3-c3c(F)cc(F)cc3OC[C@@H](C)O)cc2[C@H]1C [Compound 760] | A (percent of modification of PIK3CA protein ≥75%) |
| < 100 nM | C=CC(=O)N1CCn2nc(-c3nc(-c4ccc5c(c4)ncn5C)c4ccsc4c3-c3c(F)cc(F)cc3OC[C@@H](C)O)cc2[C@H]1C [Compound 761] | A (percent of modification of PIK3CA protein ≥75%) |
| < 100 nM | C=CC(=O)N1CCn2nc(-c3nc(-c4ccc5c(c4)CNC5=O)c4ccsc4c3-c3c(F)cc(F)cc3OC[C@@H](C)O)cc2[C@H]1C [Compound 762] | A (percent of modification of PIK3CA protein ≥75%) |
| < 100 nM | C=CC(=O)N1CCn2nc(-c3nc(-c4ccc5c(c4)CN(C)C5=O)c4ccsc4c3-c3c(F)cc(F)cc3OC[C@@H](C)O)cc2[C@H]1C [Compound 763] | A (percent of modification of PIK3CA protein ≥75%) |
| < 100 nM | C=CC(=O)N1CCn2nc(-c3nc(-c4cnnc(C)c4)c4ccsc4c3-c3c(F)cc(F)cc3OCCOC)cc2C1C (centres unmarked) [Compound 764] | A (percent of modification of PIK3CA protein ≥75%) |
| < 100 nM | C=CC(=O)N1Cc2cc(-c3nc(-c4ccc5ncn(C)c5c4)c4ccsc4c3-c3c(F)cc(F)cc3OCC(C)O)nn2CC1C (centres unmarked) [Compound 765] | A (percent of modification of PIK3CA protein ≥75%) |
| < 100 nM | C=CC(=O)N1CCn2nc(-c3nc(-c4ccc5cn(C)nc5c4)c4ccsc4c3-c3c(F)cc(F)cc3OCCOC)cc2C1C (centres unmarked) [Compound 766] | A (percent of modification of PIK3CA protein ≥75%) |
| < 100 nM | C=CC(=O)N1CCn2nc(-c3nc(-c4ccc5c(cnn5C)c4)c4ccsc4c3-c3c(F)cc(F)cc3OCC(C)O)cc2C1C (centres unmarked) [Compound 767] | A (percent of modification of PIK3CA protein ≥75%) |
| < 100 nM | C=CC(=O)N1Cc2cc(-c3nc(-c4ccc5c(c4)C(=O)NC5)c4ccsc4c3-c3c(F)cc(F)cc3OCCOC)nn2CC1C (centres unmarked) [Compound 768] | A (percent of modification of PIK3CA protein ≥75%) |
| < 100 nM | C=CC(=O)N1CCn2nc(-c3nc(-c4ccc5cnn(C)c5c4)c4ccsc4c3-c3c(F)cc(F)cc3OCC(C)O)cc2C1C (centres unmarked) [Compound 769] | A (percent of modification of PIK3CA protein ≥75%) |
| < 100 nM | C=CC(=O)N1CCn2nc(-c3nc(-c4ccc5cn(C)nc5c4)c4ccsc4c3-c3c(F)cc(F)cc3OC[C@@H](C)O)cc2[C@@H]1C [Compound 770, 1-((S)-2-((S)-7-(2,4-difluoro-6-((R)-2-hydroxypropoxy)phenyl)-4-(2-methyl-2H-indazol-6-yl)thieno[3,2-c]pyridin-6-yl)-4-methyl-6,7-dihydropyrazolo[1,5-a]pyrazin-5(4H)-yl)prop-2-en-1-one] | A (percent of modification of PIK3CA protein ≥75%) |
| < 100 nM | C=CC(=O)N1CCn2nc(-c3nc(-c4cnc(C)nc4)c4ccsc4c3-c3c(F)cc(F)cc3OCC(C)O)cc2C1C (centres unmarked) [Compound 771] | A (percent of modification of PIK3CA protein ≥75%) |
| < 100 nM | C=CC(=O)N1Cc2cc(-c3nc(-c4cnn(C(F)F)c4)c4ccsc4c3-c3c(F)cc(F)cc3OCCOC)nn2CC1C (centres unmarked) [Compound 772] | A (percent of modification of PIK3CA protein ≥75%) |
| < 100 nM | C=CC(=O)N1CCn2nc(-c3nc(-c4ccc5ncn(C)c5c4)c4ccsc4c3-c3c(F)cc(F)cc3OCCO)cc2C1C (centres unmarked) [Compound 773] | A (percent of modification of PIK3CA protein ≥75%) |
| < 100 nM | C=CC(=O)N1CCn2nc(-c3nc(-c4ccc5nn(C)cc5c4)c4ccsc4c3-c3c(F)cc(F)cc3OCCO)cc2[C@H]1C [Compound 774] | A (percent of modification of PIK3CA protein ≥75%) |
| < 100 nM | C=CC(=O)N1CCn2nc(-c3nc(-c4ccc5c(c4)ncn5C)c4ccsc4c3-c3c(F)cc(F)cc3OCCO)cc2[C@H]1C [Compound 775] | A (percent of modification of PIK3CA protein ≥75%) |
| < 100 nM | C=CC(=O)N1CCn2nc(-c3nc(-c4ccc5cnn(C)c5c4)c4ccsc4c3-c3c(F)cc(F)cc3OCCO)cc2[C@H]1C [Compound 776] | A (percent of modification of PIK3CA protein ≥75%) |
| < 100 nM | C=CC(=O)N1CCn2nc(-c3nc(-c4cn(C)cn4)c4ccsc4c3-c3c(F)cc(F)cc3OCCOC)cc2[C@@H]1C [Compound 777] | A (percent of modification of PIK3CA protein ≥75%) |
| < 100 nM | C=CC(=O)N1Cc2cc(-c3nc(-c4ccc5c(c4)NC(=O)C5)c4ccsc4c3-c3c(F)cc(F)cc3OCCOC)nn2C[C@H]1C [Compound 779] | A (percent of modification of PIK3CA protein ≥75%) |
| < 100 nM | C=CC(=O)N1CCn2nc(-c3nc(-c4ccc5cn(C)nc5c4)c4ccsc4c3-c3c(F)cc(F)cc3OCCO)cc2[C@@H]1C [Compound 780] | A (percent of modification of PIK3CA protein ≥75%) |
| < 100 nM | C=CC(=O)N1CCn2nc(-c3nc(-c4cn(C)cn4)c4ccsc4c3-c3c(F)cc(F)cc3OCCO)cc2[C@@H]1C [Compound 781] | A (percent of modification of PIK3CA protein ≥75%) |
| < 100 nM | C=CC(=O)N1Cc2cc(-c3nc(-c4ccc5cn(C)nc5c4)c4ccsc4c3-c3c(F)cc(F)cc3OCCO)nn2C(C)C1 (centres unmarked) [Compound 783] | A (percent of modification of PIK3CA protein ≥75%) |
| < 100 nM | C=CC(=O)N1Cc2cc(-c3nc(-c4cnc(C)nc4)c4ccsc4c3-c3c(F)cc(F)cc3OCCO)nn2C(C)C1 (centres unmarked) [Compound 785] | A (percent of modification of PIK3CA protein ≥75%) |
| < 100 nM | C=CC(=O)N1CCn2nc(-c3nc(-c4cn(C)cn4)c4ccsc4c3-c3c(F)cc(F)cc3OCCO)cc2C1C (centres unmarked) [Compound 786] | A (percent of modification of PIK3CA protein ≥75%) |

— patent publication US20250230138A1, “COMPOUNDS HAVING A T-STRUCTURE FORMED BY AT LEAST FOUR CYCLES FOR USE IN THE TREATMENT OF CANCER AND OTHER INDICATIONS” (TheRas, Inc., priority 2022, published 2025)
